{"source": "patent US20260256741A1", "about": "“ANTICANCER MALEIMIDE DERIVATIVES FOR USE WITH IMMUNE CHECKPOINT BLOCKADE” (BROWN UNIVERSITY, priority 2022, published 2026)", "key": {"NK-92 cells": {"test_system": "NK-92 cells", "assay": "Cytokine profiling of cell culture supernatant (Luminex 200), NK-92", "assay_type": "cell-based, human", "protocol": "Cells were plated at 3.5×10^4 cells in a 48-well plate (Thermo Fisher Scientific, Waltham, MA, USA) in complete medium and incubated at 37° C. with 5% CO2. At 24 hours after plating, almost all the tumor cells were adherent to the bottom of the flask and the complete medium was replaced with the drug-containing medium. […] On the day of analysis, samples were thawed and centrifuged to remove cellular debris.\nHuman cell line culture supernatants were analyzed using an R&D systems Human Premixed Multi-Analyte Kit (R&D Systems, Inc., Minneapolis, MN, USA) and a Luminex 200 (RRID: SCR_018025) Instrument (LX200-XPON-RUO, Luminex Corporation, Austin, TX, USA) according to the manufacturer's instructions. Sample levels of TNF-α, 4-1BB/TNFRSF9/CD137, IL-8/CXCL8, Ferritin, IFN-β, IL-10, CCL2/JE/MCP-1, VEGF, CXCL13/BLC/BCA-1, IFN-γ, CCL20/MIP-3 α, CCL3/MIP-1 α, CCL22/MDC, CCL4/MIP-1 β, Fas Ligand/TNFSF6, IL-17/IL-17A, IL-2, BAFF/BLyS/TNFSF13B, GM-CSF, CXCL5/ENA-78, TRANCE/TNFSF11/RANK L, CXCL9/MIG, G-CSF, IFN-γ R1/CD119, VEGFR3/Flt-4, C-Reactive Protein/CRP, CXCL11/I-TAC, IL-21, CXCL14/BRAK, IL-6, Fas/TNFRSF6/CD95, TRAIL R3/TNFRSF10C, IL-4, CCL5/RANTES, PD-L1/B7-H1, CCL7/MCP-3/MARC, Chitinase 3-like 1, CXCL10/IP-10/CRG-2, IL-1 β/IL-1F2, IL-7, Prolactin, CCL8/MCP-2, TRAIL R2/TNFRSF10B, M-CSF, IL-15, Granzyme B, IFN-α, TREM-1, IL-12/IL-23 p40, TRAIL/TNFSF10, CCL11/Eotaxin, and IL-18/IL-1F4. Quantitative analysis with 6 standards and a minimum of 50 counts per bead region was used with the Luminex to generate analyte values reported as picograms/milliliter (pg/mL). Sample concentrations less than the lower limit of detection for each particular analyte were recoded as the lower limit value divided by ten. Sample concentrations above the upper limit of detection for a particular analyte were recoded as the upper limit of detection."}, "HCT-116 cells": {"test_system": "HCT-116 cells", "assay": "Microarray gene expression analysis, HCT-116", "assay_type": "cell-based, human", "protocol": "A total of 0.5×10^6 tumor cells (HCT-116, HT-29, KM12C) were plated in a 6-well plate and allowed to adhere overnight before 24-hour treatment as indicated. 1×10^6 immune cells (NK92, TALL-104) were plated and treated with elraglusib as indicated for 24 hours. RNA was isolated from cell pellets in batches of 6 using an RNeasy Plus Mini Kit (Cat #74134, Qiagen, Hilden, Germany). Acceptable RNA concentration and quality were verified with Nanodrop and Bioanalyzer measurements. GeneChip™ Human Transcriptome Array 2.0 assays were conducted according to manufacturer instructions in two batches using randomized samples to limit batch effects (Cat #902162, Applied Biosystems, Waltham, MA, USA). Applied Biosystems Transcriptomic Analysis Console (TAC) software (RRID: SCR_016519) was used to calculate fold changes in gene expression relative to the untreated control cells. Values were considered statistically significant for p values <0.05."}, "[1]": {"test_system": "NK-92 natural killer cells", "assay": "Western blot analysis of NK-92 natural killer cells", "assay_type": "cell-based, human", "conditions": "through the 72-hour endpoint", "protocol": "Cells were plated in a 6-well plate and incubated overnight before the spent media was replaced with drugged media. Drug treatment lasted for indicated durations. Protein was extracted using radioimmunoprecipitation (RIPA) assay buffer (Cat #R0278, Sigma-Aldrich, St. Louis, MO) containing cOmplete™, Mini, EDTA-free Protease Inhibitor Cocktail (Cat #4693159001, Roche, Basel, Switzerland) from sub-confluent cells. Denaturing sample buffer was added, samples were boiled at 95 degrees for 10 minutes, and an equal amount of protein lysate was electrophoresed through NuPAGE™ 4 to 12%, Bis-Tris, 1.5 mm, Mini Protein Gels (Invitrogen, Waltham, MA) then transferred to PVDF membranes. The PVDF membrane was blocked with 5% non-fat milk (Sigma-Aldrich, St. Louis, MO) in 1×TTBS. Primary antibodies were incubated with the transferred PVDF membrane in blocking buffer at 4° C. overnight. Secondary antibodies used included Goat anti-Rabbit IgG (H+L) Secondary Antibody, HRP (Cat #31460, Invitrogen, Waltham, MA), and Goat anti-Mouse IgG (H+L) Secondary Antibody, HRP (Cat #31430, Invitrogen, Waltham, MA). Signal was detected using Pierce™ ECL Western Blotting Substrate (Cat #32106, Thermo Scientific, Waltham, MA, USA) and a Syngene Imaging System (RRID: SCR_015770)."}, "[2]": {"test_system": "CT-26 MSS colon carcinoma", "assay": "Syngeneic murine colon carcinoma BALB/c model using MSS cell line CT-26, survival", "assay_type": "in vivo, BALB/c mice", "conditions": "IP twice a week: elraglusib 70 mg/kg, anti-PD-1 10 mg/kg, anti-PD-L1 10 mg/kg", "protocol": "The experimental in vivo protocol (Protocol #19-01-003) was approved by the Institutional Animal Care and Use Committee of Brown University (Providence, RI, USA). Six to 7 weeks-old female BALB/c mice (RRID: IMSR_JAX:000651) were purchased from Taconic. 50,000 cells were suspended in 50 μL ice-cold PBS and 50 μL Matrigel (Catalog # 354234, Corning, New York, USA), and 100 uL was injected subcutaneously into the rear flanks. Once tumor volume reached at least 100 mm^3, mice were randomly assigned to one of seven groups (3 mice/group): Control (isotype), elraglusib, elraglusib+Isotype, anti-PD-1, anti-PD-L1, elraglusib+anti-PD-1, and elraglusib+anti-PD-L1. All treatments were delivered by IP injection on the following dosing schedule: Isotype (70 mg/kg, twice a week), elraglusib (70 mg/kg, twice a week), anti-PD-1 (10 mg/kg, twice a week), anti-PD-L1 (10 mg/kg, twice a week). The treatment continued until mice developed signs of discomfort from excessive tumor growth. Mice were weighed once a week to monitor signs of drug toxicity. The length (L) and width (W) of the masses were measured three times per week with a digital caliper, and the tumor volume was calculated by applying the formula: 0.5LW2. Collection of whole blood and serum was performed by cardiac puncture and sent to Antech GLP for blood cell count and chemistry tests, or in-house cytokine profiling. […]"}}, "data": [{"molecule": "Cn1cc(C2=C(c3coc4ccc(F)cc34)C(=O)NC2=O)c2cc3c(cc21)OCO3", "note": "[elraglusib, 3-(5-fluorobenzofuran-3-yl)-4-(5-methyl-5H-[1,3]dioxolo[4,5-f]indol-7-yl)-1H-pyrrole-2,5-dione]", "values": [{"measurement": "IFN-γ concentration in supernatant", "setting": "NK-92 cells; 1 μM, 48 hours", "value": "increases"}, {"measurement": "TRAIL concentration in supernatant", "setting": "NK-92 cells; 1 μM, 48 hours", "value": "increases"}, {"measurement": "secreted granzyme B concentration", "setting": "NK-92 cells; 1 μM, 48 hours", "value": "decreases"}, {"measurement": "IFN-γ in cell culture supernatant", "setting": "NK-92 cells; 24 hours treatment vs DMSO", "value": "significant increase in IFN-γ"}, {"measurement": "CMTM4 gene expression fold change", "setting": "HCT-116 cells; 24 hours vs DMSO", "value": "−1.84", "unit": "FC"}, {"measurement": "NEK2 gene expression fold change", "setting": "HCT-116 cells; 24 hours vs DMSO", "value": "−2.21", "unit": "FC"}, {"measurement": "PPP1R1C gene expression fold change", "setting": "HCT-116 cells; 24 hours vs DMSO", "value": 1.78, "unit": "FC"}, {"measurement": "downregulated genes in VEGFA-VEGFR2 signaling pathway", "setting": "HCT-116 cells; 24 hours vs DMSO", "value": 29}, {"measurement": "differentially expressed genes post-treatment", "setting": "HCT-116 cells; IC-50 concentration (1 μM), 24 hours, FC cutoff >1.5, <−1.5, p<0.05", "value": 340}, {"measurement": "Mcl-1 protein expression", "setting": "[1]", "value": "did not observe a significant decrease"}, {"measurement": "survival (Kaplan-Meier) as compared to the control", "setting": "[2]", "value": "statistically significant improved survival"}]}]}
